Laboratory results reported in US7442693B2, “Diazepine compounds as ligands of the melanocortin 1 and/or 4 receptors” (SmithKline Beecham Corporation, priority 2004, dated 2008).

Assays:
human MC4R = molecular target: T1, human MC4R (Homo sapiens, UniProt P32245); assay: CHO-6xCRE-luc+ reporter gene assay, MC4R agonist activity; format: cell-based; conditions: for Emax: 4 h, percentage of the fold stimulation in the NDP-αMSH control (1×10^−7 M), human MC4R, read-out: % Max MSH; for EC50: CHO-6xCRE-luc+ cells expressing human MC4R, 4 h at 37° C., luciferase activity
T1 construct: expressed in transfected cells; host or cells: CHO-6xCRE-luc+ reporter cell line
T1 sequence (P32245 whole entry): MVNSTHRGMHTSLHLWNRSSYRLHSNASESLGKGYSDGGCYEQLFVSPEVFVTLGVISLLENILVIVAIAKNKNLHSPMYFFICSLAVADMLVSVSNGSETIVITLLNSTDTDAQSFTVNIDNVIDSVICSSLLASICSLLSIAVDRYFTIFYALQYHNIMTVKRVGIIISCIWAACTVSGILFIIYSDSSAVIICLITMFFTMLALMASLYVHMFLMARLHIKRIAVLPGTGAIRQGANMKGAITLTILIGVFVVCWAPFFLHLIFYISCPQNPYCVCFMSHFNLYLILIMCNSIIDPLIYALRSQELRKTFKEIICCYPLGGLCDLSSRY
Procedure: (§1) CHO-6×CRE-luc^+ reporter cell lines expressing human MC1R, MC3R, MC4R, and MC5R (GenBank accession numbers X65634, L06155, S77415 and U08353) and the CHO host reporter gene cell line were propagated in complete medium in T225 flasks. Forty-eight hours prior to assay, cells were harvested with 2 ml of 0.05% trypsin, washed with complete medium and plated at a concentration of 4000 cells/well in complete medium. Sixteen hours prior to the assay, the medium was removed from the cells and replaced with 90 μl/well of serum-free DMEM/F12. At the time of the assay the compounds were added in a 10 μl volume and plates were incubated for 4 h at 37° C. in a cell culture incubator. The medium was aspirated followed by the addition of 50 μl of a 1:1 mixture of LucLite™ and dPBS containing 1 mM CaCl2 and 1 mM MgCl2. The plates were then sealed and subjected to dark adaptation at room temperature for 10 min before luciferase activity was quantitated on a TopCount™ microplate scintillation counter (Packard) using 3 s/well count time. The NDP-αMSH and 154N-5 concentration-response curve data were expressed as a percentage of the fold stimulation in the NDP-αMSH control for each receptor subtype. The control value is the average of duplicate wells treated with 1×10^−7 M NDP-αMSH.

human MC1R = molecular target: T2, human MC1R (Homo sapiens, UniProt Q01726); assay: CHO-6xCRE-luc+ reporter gene assay, MC1R agonist activity; format: cell-based; conditions: for Emax: 4 h, read-out: % of MSH
T2 construct: expressed in transfected cells; host or cells: CHO-6xCRE-luc+ reporter cell line
T2 sequence (Q01726 whole entry): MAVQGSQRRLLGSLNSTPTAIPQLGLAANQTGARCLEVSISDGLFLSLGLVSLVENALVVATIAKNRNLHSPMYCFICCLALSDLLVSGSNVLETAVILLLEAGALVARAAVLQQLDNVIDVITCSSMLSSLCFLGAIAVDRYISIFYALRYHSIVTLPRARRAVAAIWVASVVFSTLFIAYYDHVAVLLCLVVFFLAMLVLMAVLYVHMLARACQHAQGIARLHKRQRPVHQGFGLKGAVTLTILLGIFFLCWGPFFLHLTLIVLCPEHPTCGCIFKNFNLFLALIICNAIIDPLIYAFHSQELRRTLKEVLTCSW
Procedure: as §1

[1] = percentage of the fold stimulation in the NDP-αMSH control (1×10^−7 M), human MC1R
[2] = CHO-6xCRE-luc+ cells expressing human MC1R, 4 h at 37° C., luciferase activity

Compound | Emax (human MC4R) | EC50 (human MC4R) | Emax (human MC1R; [1]) | EC50 (human MC1R; [2]) | pEC50 (human MC1R; [2]) | % of MSH (human MC1R; [1])
COC1(Cc2n[nH]c3ccccc23)C(=O)N(CC(=O)N(c2ccc(F)cc2)C(C)C)C=CN(c2ccccc2)C1=O (stereo not shown) [Example 5, 2-[2,4-dioxo-3-(1H-indazol-3-ylmethylene)-3-methoxy-5-phenyl-2,3,4,5-tetrahydro-1H-1,5-diazepin-1-yl]-N-(4-fluorophenyl) N-isopropylacetamide] | 78% | 151 nM |  |  |  | 
O=C1C(Cc2n[nH]c3ccccc23)C(=O)N(c2ccccc2)C=CN1CC(=O)N1CCCCc2ccccc21 (stereo not shown) [Example 16] |  |  | 61% | 1.58 nM |  | 
Cc1ccc(N(C(=O)CN2C=CN(c3ccccc3)C(=O)C(Cc3n[nH]c4ccccc34)C2=O)C(C)C)cc1 (stereo not shown) [Example 14] |  |  | 69% | 269 nM |  | 
CCc1ccc(N(C(=O)CN2C=CN(c3ccccc3)C(=O)C(Cc3n[nH]c4ccccc34)C2=O)C(C)C)cc1 (stereo not shown) [Example 8] | 53% | 347 nM | 72% | 148 nM |  | 
O=C1C(Cc2n[nH]c3cc(F)ccc23)C(=O)N(c2ccccc2)C=CN1CC(=O)N1CCCCc2ccccc21 (stereo not shown) [Example 15] |  |  | 61% | 1.58 nM |  | 
COc1ccc(N(C(=O)CN2C=CN(c3ccccc3)C(=O)C(Cc3n[nH]c4cc(F)ccc34)C2=O)C(C)C)cc1 (stereo not shown) [Example 17] |  |  | 83% | 1.58 nM |  | 
CC(C)N(C(=O)CN1C=CN(c2ccccc2)C(=O)C(Cc2n[nH]c3ccccc23)C1=O)c1ccc(I)cc1 (stereo not shown) [Example 10] | 49% | 398 nM | 84% | 72.4 nM |  | 
CCOc1ccc(N(C(=O)CN2C=CN(c3ccccc3)C(=O)C(Cc3n[nH]c4ccccc34)C2=O)C(C)C)cc1 (stereo not shown) [Example 13] | 65% | 513 nM | 64% | 110 nM |  | 
CC(C)N(C(=O)CN1C=CN(c2ccccc2)C(=O)C(Cc2n[nH]c3ccccc23)C1=O)c1ccc(C(F)(F)F)cc1 (stereo not shown) [Example 11] | 55% | 417 nM | 68% | 145 nM |  | 
Cc1cc(OC(F)(F)F)ccc1N(C(=O)CN1C=CN(c2ccccc2)C(=O)C(Cc2n[nH]c3ccccc23)C1=O)C(C)C (stereo not shown) [Example 4] | 52% | 44.7 nM | 74% | 70.8 nM |  | 
CCCc1ccc(N(C(=O)CN2C=CN(c3ccccc3)C(=O)C(Cc3n[nH]c4ccccc34)C2=O)C(C)C)cc1 (stereo not shown) [Example 9] | 65% | 389 nM | 37% | 200 nM |  | 
CC(C)N(C(=O)CN1C=CN(c2ccccc2)C(=O)C(Cc2n[nH]c3ccccc23)C1=O)c1ccc(Cl)cc1 (stereo not shown) [Example 3] | 58% | 42.7 nM | 73% | 112 nM |  | 
COc1ccc(N(C(=O)CN2C=CN(c3ccccc3)C(=O)C(Cn3c(=O)[nH]c4ccccc43)C2=O)C(C)C)cc1 (stereo not shown) [Example 12] | 56% | 437 nM | 61% | 19.5 nM |  | 
CC(C)N(C(=O)CN1C=CN(c2ccccc2)C(=O)C(Cc2n[nH]c3ccccc23)C1=O)c1ccc(OC(F)(F)F)cc1 (stereo not shown) [Example 6] | 51% | 204 nM | 91% | 22.4 nM |  | 
COc1cccc2c1CCCCN2C(=O)CN1C=CN(c2ccccc2)C(=O)C(Cc2n[nH]c3ccccc23)C1=O (stereo not shown) [Example 7] | 77% | 347 nM | 50% | 40.7 nM |  | 
COc1ccc(N(C(=O)CN2C=CN(c3ccccc3)C(=O)C(Cc3n[nH]c4ccccc34)C2=O)C(C)C)cc1 (stereo not shown) [Example 1] | 56% | 417 nM | 68% | 29.5 nM |  | 
COc1ccc(N(C(=O)CN2C=CN(c3ccccc3)C(=O)C(Cc3n[nH]c4ccccc34)C2=O)C(C)C)cc1 (single isomer, unassigned) [Example 2] | 51% | 282 nM | 85% | 18.6 nM |  | 

The next lines start with the values.

Emax (human MC4R) | EC50 (human MC4R) | Emax (human MC1R; [1]) | EC50 (human MC1R; [2]) | pEC50 (human MC1R; [2]) | % of MSH (human MC1R; [1]) | Compound
 |  | 72% | 51.3 nM |  |  | CCCN(C(=O)CN1C=CN(c2ccccc2)C(=O)C(Cc2n[nH]c3ccccc23)C1=O)c1ccc(OC)cc1 (stereo not shown) [Example 23]
 |  |  |  | 8.80 | 86% | O=C1C(Cc2n[nH]c3ccccc23)C(=O)N(c2ccccc2)C=CN1CC(=O)N1CCCCc2ccccc21 (single isomer, unassigned) [Example 24]
 |  | 103% | 182 nM |  |  | COc1ccc(N(C(=O)CN2C=CN(c3ccccc3)C(=O)C(Cn3cnc4ccccc43)C2=O)C(C)C)cc1 (stereo not shown) [Example 29]
 |  | 40% | 224 nM |  |  | CC(C)c1ccc(N(C(=O)CN2C=CN(c3ccccc3)C(=O)C(Cc3n[nH]c4ccccc34)C2=O)C(C)C)cc1 (stereo not shown) [Example 31]
 |  | 54% | 50.1 nM |  |  | CC(C)N(C(=O)CN1C=CN(c2ccccc2)C(=O)C(Cc2n[nH]c3ccccc23)C1=O)c1ccc(F)cc1 (stereo not shown) [Example 22]
 |  | 79% | 35.5 nM |  |  | CC(C)N(C(=O)CN1C=CN(c2ccccc2)C(=O)C(Cc2n[nH]c3cc(F)ccc23)C1=O)c1ccccc1 (single isomer, unassigned) [Example 21]
 |  | 72% | 64.6 nM |  |  | CCN(C(=O)CN1C=CN(c2ccccc2)C(=O)C(Cc2n[nH]c3ccccc23)C1=O)c1ccc(OC)cc1 (stereo not shown) [Example 25]
 |  | 69% | 204 nM |  |  | CC1CCc2ccccc2N1C(=O)CN1C=CN(c2ccccc2)C(=O)C(Cc2n[nH]c3ccccc23)C1=O (stereo not shown) [Example 30]
 |  | 87% | 1.58 nM |  |  | O=C1C(Cc2n[nH]c3ccccc23)C(=O)N(c2ccccc2)C=CN1CC(=O)N1CCCCc2ccccc21 (single isomer, unassigned) [Example 18]
 |  | 79% | 158 nM |  |  | CC(C)N(C(=O)CN1C=CN(c2ccccc2)C(=O)C(Cc2n[nH]c3ccccc23)C1=O)c1ccc(O)cc1 (stereo not shown) [Example 28]
 |  | 53% | 14.1 nM |  |  | CC(C)N(C(=O)CN1C=CN(c2ccccc2)C(=O)C(Cc2n[nH]c3cc(F)ccc23)C1=O)c1ccc(F)cc1 (stereo not shown) [Example 19]
 |  | 41% | 74.1 nM |  |  | CC(C)Oc1ccc(N(C(=O)CN2C=CN(c3ccccc3)C(=O)C(Cc3n[nH]c4ccccc34)C2=O)C(C)C)cc1 (stereo not shown) [Example 26]
 |  | 54% | 295 nM |  |  | CC(C)N(C(=O)CN1C=CN(c2ccccc2)C(=O)C(Cc2n[nH]c3ccccc23)C1=O)c1ccccc1 (stereo not shown) [Example 32]
 |  | 95% | 129 nM |  |  | COc1ccc(N(C(=O)CN2C=CN(c3ccccc3)C(=O)C(Cc3n[nH]c4c3CCCC4)C2=O)C(C)C)cc1 (stereo not shown) [Example 27]
 |  | 51% | 191 nM |  |  | CC(C)N(C(=O)CN1C=CN(c2ccccc2)C(=O)C(Cc2n[nH]c3cc(F)ccc23)C1=O)c1ccccc1 (stereo not shown) [Example 20]
